Test results: patent US8192854B2, “Microbial fuel cell treatment of ethanol fermentation process water” (priority 2009, dated 2012)

System: inhibitor-consuming microbial consortium in a microbial fuel cell (MFC-A)
Assay: Effect of inhibitor concentration on electricity production, air-cathode MFC
Conditions: 0.1 g/L to 2 g/L (20.8 mM)
Experimental: After confirmation of electricity production from individual inhibitor molecules, the effect of inhibitor concentration on their removal and electricity production was studied. The experiments were conducted by adding each of the substrates individually, at the various concentrations to study substrate inhibition. From day 51 to 62, HB was used as the energy source for the MFC at concentrations from 0.1 to 1 g/L. From day 63 to day 82, 2-furfural was used as the energy source at a concentration from 0.05 to 2 g/L. From day 83 to day 101, VA was used as the substrate from 0.05 to 4 g/L, followed by use of HMF as substrate from day 129 to day 150 at a concentration from 0.2 to 2 g/L. The MFC was operated with 2-furfural as the substrate between day 102 to 128. Effect of acetate was studied in MFC-B up to a concentration of 10 g/L. The voltage output was monitored at each concentration for a period of up to five days. The effect of 2-furfural on electricity production was studied at a concentration from 0.1 g/L to 2 g/L (20.8 mM) using an air-cathode MFC. […] It should be noted that the substrate utilization was limited by the cathode side in an air-cathode MFC used in this study. […] The effect of acetate concentration was also studied in a different MFC (MFC-B) using a consortium enriched on acetate.

O=Cc1ccco1 [2-furfural]
inhibition of electricity production: No inhibition
